According to PubChem BioAssay (NCI):
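GI50 is the concentration that inhibits growth by half. TGI: total growth inhibition.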

Assays:
Assay in all cases: DTP human tumour cell line panel, 384-well format
[1] = system: CAKI-1 renal
[2] = system: ACHN renal
[3] = system: MDA-MB-231 breast
[4] = system: SNB-19 CNS
[5] = system: BT-549 breast
[6] = system: HT29 colon
[7] = system: MDA-MB-468 breast
[8] = system: UO-31 renal
[9] = system: SF-295 CNS
[10] = system: A549 NSCLC
[11] = system: OVCAR-3 ovarian
[12] = system: HS 578T breast
[13] = system: SNB-75 CNS

Structure (SMILES): O=C(/C=C\n1cnc(-c2cc(C(F)(F)F)cc(C(F)(F)F)c2)n1)NNc1cnccn1
- GI50 [1]: 99.7 nM
- TGI [1]: 13100 nM
- GI50 [2]: 250 nM
- TGI [2]: 5390 nM
- GI50 [3]: 51.7 nM
- TGI [3]: 244 nM
- GI50 [4]: 451 nM
- TGI [4]: 8540 nM
- GI50 [5]: 19.9 nM
- TGI [5]: 62.1 nM
- GI50 [6]: 213 nM
- TGI [6]: 6540 nM
- GI50 [7]: 90.3 nM
- TGI [7]: 249 nM
- GI50 [8]: 466 nM
- TGI [8]: 4410 nM
- GI50 [9]: 86 nM
- TGI [9]: 1050 nM
- GI50 [10]: 109 nM
- TGI [10]: 5620 nM
- GI50 [11]: 57.6 nM
- TGI [11]: 463 nM
- GI50 [12]: 41.1 nM
- TGI [12]: 281 nM
- GI50 [13]: 77 nM
- TGI [13]: 422 nM
